Assay [1] relates to T1, Blg163.
T1 construct: full-length ORF 1341 bp, 447 residues (Met1 to Ser447), GH1; pEASY-E1 vector, His-tag (Ni-NTA) apparently kept; expressed in E. coli BL21(DE3) pLysS; best hits Rhodobacteraceae bacterium NVK46632.1 (homologue)
In words: hydrolysis kinetics, […] substrate. The format is biochemical, uncultured bacterium (coral microbial metagenome). Particulars: citrate buffer, pH 7.0, 30 °C, 5 min.

Assay [2] concerns T1, Blg163. In words: p-nitrophenol release, absorbance at […] nm. The class given is biochemical, uncultured bacterium (coral microbial metagenome). The note with it: citrate buffer, pH 7.0, 30 °C, 5 min.

A word on the Km: it is the concentration of substrate that gives half-maximal velocity.

Take `OC[C@H]1O[C@@H](O[C@H]2[C@H](O)[C@@H](O)C(O)O[C@@H]2CO)[C@H](O)[C@@H](O)[C@@H]1O` (stereo partly drawn) [cellobiose]: the Km in the assay with Blg163 [1] was 450 µM. Turning to `OC[C@H]1O[C@@H](OC[C@H]2OC(O)[C@H](O)[C@@H](O)[C@@H]2O)[C@H](O)[C@@H](O)[C@@H]1O` (stereo partly drawn) [gentiobiose], in the assay with Blg163 [1], the Km was determined as 720 µM. `O=[N+]([O-])c1ccc(O[C@@H]2O[C@H](CO)[C@@H](O)[C@H](O)[C@H]2O)cc1` [p-Nitrophenyl-β-D-glucopyranoside]: the Km in the assay with Blg163 [2] worked out at 320 µM.

For the origin of these results see paper PMC8700683, “A Novel Neutral and Mesophilic β-Glucosidase from Coral Microorganisms for Efficient Preparation of Gentiooligosaccharides” (Foods, 2021).
